One data set concerns STAT3. Briefly: STAT3 transcription inhibition test (reporter gene method, oncostatin M stimulation). The format is cell-based. As to conditions: compound at 100 μM, STAT3 reporter HeLa stable cell line, oncostatin M 10 ng/mL, 4 hours; for inhibition at 100 µM: Homo sapiens, read-out: STAT3 transcription inhibitory activity (%). The method, then: The inhibition of STAT3 transcription was evaluated by using STAT3 reporter HeLa stable cell line (Panomics Inc., catalog No. RC0003), a cell line for the reporter gene method, and performing the following method according to the appendix included therein.
STAT3 reporter HeLa stable cell line subcultured and maintained in a Dulbecco's modified Eagle's medium (DMEM) containing 10% fetal bovine serum, 100 units/mL penicillin, and 100 μg/mL streptomycin was inoculated at a concentration of 40000 cells/well to a 96-well plate (white) and attached to the plate by overnight incubation at 37° C. under 5% CO2. After addition of each evaluation compound adjusted to various concentrations (adjusted with a DMSO solution), the cells were precultured for 1 hour. Then, oncostatin M for activating STAT3 was added at a final concentration 10 ng/mL, and the cells were further cultured at 37° C. under 5% CO2 for 4 hours. Luciferase activity derived from the cells was determined using Steady-Glo Luciferase Assay System (Promega Corp.), and STAT3 transcriptional activity scores were calculated according to the following formula: STAT3 transcriptional activity score (%)=100×(Lchem−L0)/(LDMSO−L0) Lo: luminescence intensity obtained without stimulation with oncostatin M Lchem: luminescence intensity obtained by the addition of a test sample LDMSO: luminescence intensity obtained by the addition of only a solvent for dissolving a test sample

A further data set concerns MDA-MB-435S. Briefly: MDA-MB-435S cell growth inhibitory activity. The format is cell-based. As to conditions: for inhibition at 20 µM: Homo sapiens, read-out: Cell growth inhibitory activity (%). The method, then: […] Each well was washed three times with a medium. Then, after addition of 100 μL/well of a medium and 20 μL/well of CellTiter 96 AQueous One Solution Reagent (Promega Corp.), the cells were incubated at 37° C. for 2 hours in the presence of 5% CO2.

Data set [1] has as its system Human lymphoma SCC-3 cells. The experiment in a line: SCC-3 cell growth inhibition test (MTT method). Conditions: 72-hour culture, read-out: Cell growth inhibitory activity (IC50: μM). It counts as cell-based. The method, then: Simultaneously with cell inoculation, each test compound diluted to various concentrations with an RPMI medium was added to each well.
Background: Tetrazolium dyes change colour on reduction, which living cells bring about.

In data set [2] the test system is human lymphoma SCC-3 cells. The experiment in a line: Evaluation using human lymphoma-transplanted nude mice. As to conditions: SCC-3 cancer-bearing nude mice; for T/C (%): tumor volume ratio vs control.
Description: 1×10^6 human lymphoma SCC-3 cells (containing Matrigel) were subcutaneously transplanted to the flank part of each 6-week-old male nude mouse (BALB/cA-nu/nu, CLEA Japan, Inc.). After the transplantation, the tumor volumes [major axis (mm) and minor axis (mm)] of the SCC-3 cancer-bearing mice were measured using an electronic vernier caliper (CD-10, Mitutoyo Corp.), and tumor volumes [mm^3: (major axis)x(minor axis)^2/2] were calculated. SCC-3 cancer-bearing mice whose tumor volume reached 50 to 300 mm^3 were selected and divided based on the tumor volumes into groups each containing 5 individuals. A test compound was suspended in a 0.5% methylcellulose solution and orally administered at a dose of 0.01 mL/g body weight once a day for 5 days (Day 0 (administration initiation day) to Day 4). To a control group, none was administered. The tumor volumes of the SCC-3 cancer-bearing mice were measured every day from the initiation of test compound administration to evaluate antitumor effect. The antitumor effect was assessed by calculating T/C (%) values according to the following formula:
V: tumor volume on every assay day
V0: tumor volume on the administration initiation day (V/V0 of the test compound group)/(V/V0 of the control group)×100
Setting [3] is: 40 mg/kg orally once a day for 5 days.
Setting [4] is: 160 mg/kg orally once a day for 5 days.

Where two headings read alike, the source gives them in different places.

The IC50 is the point on the concentration scale where inhibition reaches its midpoint. As to `O=C(Nc1nnc(-c2ccco2)o1)c1cc(-c2ccccc2)nc2ccccc12` [Ia-1, N-[5-(2-furyl)-1,3,4-oxadiazol-2-yl]-2-phenyl-4-quinolinecarboxamide], the inhibition at 100 µM in the data set on STAT3 worked out at 54%. Further, the inhibition at 20 µM in the data set with MDA-MB-435S (72 h) turned out to be 89%. The IC50 in data set [1] (Homo sapiens) was determined as 5.9 µM. In data set [2] (setting [3]), the “The number of deaths” value is on record as 0/5 and the “T/C (%)” value stood at 38%. Further, in data set [2] (setting [4]), the “The number of deaths” value is 0/5 and the “T/C (%)” value is on record as 40%.
Take `N#Cc1ccc(-c2cc(C(=O)Nc3nnc(-c4ccco4)o3)c3ccccc3n2)cc1` [Ia-17, 2-(4-cyanophenyl)-N-[5-(2-furyl)-1,3,4-oxadiazol-2-yl]-4-quinolinecarboxamide]: the inhibition at 100 µM with STAT3 is 80%. Besides, the inhibition at 20 µM with MDA-MB-435S (compound at 20 μM, 72 hours) is 54%. Further, the half-maximal inhibitory concentration (IC50) in data set [1] (Homo sapiens) came out at 4.6 µM.
Consider `O=C(Nc1nnc(-c2ccco2)o1)c1cc(-c2ccc(Cl)s2)nc2ccccc12` [Ia-19, 2-(5-chloro-2-thienyl)-N-[5-(2-furyl)-1,3,4-oxadiazol-2-yl]-4-quinolinecarboxamide], for which, in the data set on STAT3, the inhibition at 100 µM is 77%. For the same compound, in the data set on MDA-MB-435S (compound at 20 μM, 72 hours), the inhibition at 20 µM amounted to 98%. Further, the IC50 in data set [1] (Homo sapiens) stood at 2.1 µM.
On to `O=C(Nc1nnc(-c2ccco2)o1)c1cc(-c2ccccc2)nc2ccc(Cl)cc12` [Ia-22, 6-chloro-N-[5-(2-furyl)-1,3,4-oxadiazol-2-yl]-2-phenyl-4-quinolinecarboxamide], for which the inhibition at 100 µM in the data set with STAT3 is 76%. Further, the inhibition at 20 µM in the data set with MDA-MB-435S (compound at 20 μM, 72 hours) is 98%. In data set [1] (Homo sapiens), the half-inhibitory concentration (IC50) was found to be 0.9 µM. In data set [2] (setting [3]), the “The number of deaths” value is 0/5 and the “T/C (%)” value is recorded as 56%.
In the case of `O=C(Nc1nnc(-c2ccco2)o1)c1cc(-c2ccccc2)nc2cc(Br)ccc12` [Ia-24, 7-bromo-N-[5-(2-furyl)-1,3,4-oxadiazol-2-yl]-2-phenyl-4-quinolinecarboxamide], the inhibition at 100 µM with STAT3 was 72%. The inhibition at 20 µM in the data set with MDA-MB-435S (compound at 20 μM, 72 hours) amounted to 94%. In addition, the IC50 in data set [1] (Homo sapiens) came to 1.9 µM.
`Cc1cccc2c(C(=O)Nc3nnc(-c4ccco4)o3)cc(-c3ccccc3)nc12` [Ia-25, N-[5-(2-furyl)-1,3,4-oxadiazol-2-yl]-8-methyl-2-phenyl-4-quinolinecarboxamide]: the inhibition at 100 µM in the data set with STAT3 was 77%. The 50% inhibitory concentration (IC50) in data set [1] (Homo sapiens) worked out at 6 µM.
For `Cc1cc(C)c2nc(-c3cccs3)cc(C(=O)Nc3nnc(-c4ccco4)o3)c2c1` [Ia-33, N-[5-(2-furyl)-1,3,4-oxadiazol-2-yl]-6,8-dimethyl-2-(2-thienyl)-4-quinolinecarboxamide], the inhibition at 100 µM in the data set with STAT3 amounted to 58%. Besides, the inhibition at 20 µM with MDA-MB-435S (compound at 20 μM, 72 hours) was found to be 79%. The IC50 in data set [1] (Homo sapiens) amounted to 1.3 µM.
Turning to `CCCCOc1cc(C(=O)Nc2nnc(-c3ccco3)o2)c2ccccc2n1` [Ia-35, 2-(1-butoxy)-N-[5-(2-furyl)-1,3,4-oxadiazol-2-yl]-4-quinolinecarboxamide], the inhibition at 100 µM with STAT3 came to 57%. Also, the 50% inhibitory concentration (IC50) in data set [1] (Homo sapiens) is 5.6 µM.
Regarding `CC(C)(C)OC(=O)c1cccc(-c2cc(C(=O)Nc3nnc(-c4ccco4)o3)c3ccccc3n2)c1` [Ia-44, 2-(3-tert-butoxycarbonylphenyl)-N-[5-(2-furyl)-1,3,4-oxadiazol-2-yl]-4-quinolinecarboxamide], the inhibition at 100 µM in the data set on STAT3 was over 100%. For the same compound, the inhibition at 20 µM in the data set with MDA-MB-435S (compound at 20 μM, 72 hours) was determined as 99%. The IC50 in data set [1] (Homo sapiens) worked out at 1.8 µM.
`O=C(Nc1nnc(-c2ccco2)o1)c1cc(-c2ccc(Cl)cc2)nc2ccccc12` [Ia-47, 2-(4-chlorophenyl)-N-[5-(2-furyl)-1,3,4-oxadiazol-2-yl]-4-quinolinecarboxamide]: the inhibition at 100 µM in the data set on STAT3 is over 100%. For the same compound, the inhibition at 20 µM with MDA-MB-435S (compound at 20 μM, 72 hours) was determined as 82%. In addition, the IC50 in data set [1] (Homo sapiens) was 2 µM.
For `O=C(Nc1nnc(-c2ccco2)o1)c1cc(-c2ccc([N+](=O)[O-])cc2)nc2ccccc12` [Ia-52, N-[5-(2-furyl)-1,3,4-oxadiazol-2-yl]-2-(4-nitrophenyl)-4-quinolinecarboxamide], in that order: over 100%, 68% and 2.2 µM.
As for `CC(C)(C)OC(=O)c1ccc(-c2cc(C(=O)Nc3nnc(-c4ccco4)o3)c3ccccc3n2)cc1` [Ia-53, 2-(4-tert-butoxycarbonylphenyl)-N-[5-(2-furyl)-1,3,4-oxadiazol-2-yl]-4-quinolinecarboxamide], the inhibition at 100 µM with STAT3 is over 100%. In the data set on MDA-MB-435S (compound at 20 μM, 72 hours), the inhibition at 20 µM was determined as 100%. Moreover, the half-inhibitory concentration (IC50) in data set [1] (Homo sapiens) is 0.7 µM.
For `O=C(Nc1nnc(-c2ccco2)o1)c1cc(-c2cccc3ccccc23)nc2ccccc12` [Ia-60, N-[5-(2-furyl)-1,3,4-oxadiazol-2-yl]-2-(1-naphthyl)-4-quinolinecarboxamide], the inhibition at 100 µM in the data set on STAT3 was over 100%. For the same compound, the inhibition at 20 µM in the data set on MDA-MB-435S (compound at 20 μM, 72 hours) worked out at 100%. In addition, in data set [1] (Homo sapiens), the IC50 came out at 2.1 µM.
Consider `O=C(Nc1nnc(-c2ccco2)o1)c1cc(/C=C/c2ccccc2)nc2ccccc12` [Ia-65, N-[5-(2-furyl)-1,3,4-oxadiazol-2-yl]-2-trans-styryl-4-quinolinecarboxamide], for which, in the data set on STAT3, the “STAT3 transcription inhibitory activity (%)” value is over 100%. For the same compound, the “Cell growth inhibitory activity (%)” value in the data set on MDA-MB-435S (compound at 20 μM, 72 hours) is given as 69%. In addition, the IC50 in data set [1] was determined as 2.6 µM.
For the compound `O=C(Nc1nnc(-c2ccco2)o1)c1cc(-c2ccccc2)nc2ccc(F)cc12` [Ia-67, 6-fluoro-N-[5-(2-furyl)-1,3,4-oxadiazol-2-yl]-2-phenyl-4-quinolinecarboxamide], in the data set on STAT3, the inhibition at 100 µM was 90%. In addition, the IC50 in data set [1] (Homo sapiens) was 2.1 µM.
Regarding `Cc1ccc2nc(-c3ccccc3)cc(C(=O)Nc3nnc(-c4ccco4)o3)c2c1` [Ia-70, N-[5-(2-furyl)-1,3,4-oxadiazol-2-yl]-6-methyl-2-phenyl-4-quinolinecarboxamide], in the data set on STAT3, the inhibition at 100 µM is over 100%. For the same compound, the inhibition at 20 µM in the data set with MDA-MB-435S (compound at 20 μM, 72 hours) is over 100%. The half-maximal inhibitory concentration (IC50) in data set [1] (Homo sapiens) turned out to be 1.9 µM.
As to `O=C(Nc1nnc(-c2ccco2)o1)c1cc(-c2ccccc2)nc2ccc(OC(F)(F)F)cc12` [Ia-71, N-[5-(2-furyl)-1,3,4-oxadiazol-2-yl]-2-phenyl-6-trifluoromethoxy-4-quinolinecarboxamide], the inhibition at 100 µM in the data set with STAT3 was over 100%. In addition, the inhibition at 20 µM in the data set with MDA-MB-435S (72 h) amounted to 85%. In addition, the concentration for half-maximal inhibition (IC50) in data set [1] (Homo sapiens) turned out to be 0.3 µM.
Regarding `O=C(Nc1nnc(-c2ccco2)o1)c1cc(-c2ccccc2)nc2cc(Cl)ccc12` [Ia-72, 7-chloro-N-[5-(2-furyl)-1,3,4-oxadiazol-2-yl]-2-phenyl-4-quinolinecarboxamide], the inhibition at 100 µM with STAT3 is over 100%. Further, in data set [1] (Homo sapiens), the IC50 was found to be 2.2 µM.
On to `O=C(Nc1nnc(-c2ccco2)o1)c1cc(-c2ccccc2)nc2c(Cl)cc(Cl)cc12` [Ia-74, 6,8-dichloro-N-[5-(2-furyl)-1,3,4-oxadiazol-2-yl]-2-phenyl-4-quinolinecarboxamide], for which, in the data set on STAT3, the inhibition at 100 µM is 97%. In addition, the inhibition at 20 µM with MDA-MB-435S (compound at 20 μM, 72 hours) amounted to 82%. The concentration for half-maximal inhibition (IC50) in data set [1] (Homo sapiens) was determined as 0.7 µM.
Consider `Cc1ccc(-c2cc(C(=O)Nc3nnc(-c4ccccc4)o3)c3ccccc3n2)cc1` [Ia-i, N-(5-phenyl-1,3,4-oxadiazol-2-yl)-2-(4-tolyl)-4-quinolinecarboxamide], for which the inhibition at 100 µM in the data set with STAT3 is 85%. Besides, the IC50 in data set [1] (Homo sapiens) worked out at 2.7 µM.

These data come from US8466290B2, “STAT3 inhibitor containing quinolinecarboxamide derivative as active ingredient” (Pharma IP General Incorporated Association, priority 2008, dated 2013).
